The source of these data is patent US4994479A, “Phenylene derivatives and anti-allergic use thereof” (Yamanouchi Pharmaceutical Co., Ltd., priority 1985, dated 1991).

Assay [1] relates to SRS-A-induced contractions of guinea-pig ileum. Kind of assay: Inhibition of SRS-A-induced contractions of isolated guinea-pig ileum. The arrangement: species or system guinea-pig (male Hartley). The note with it: for IC50: Cavia porcellus, 20 min, submaximal concentration of SRS-A, incubation 20 minutes; for anti-SRS-A activity: in words. As for the experimental part:
(§1) Male Hartley guinea- pigs, weighing 500 to 700 g were sacrificed by a blow on the head. The ileum and tracheal strips prepared according to the method of Constantine (1965) were suspended with 1.0 g tension in an organ bath containing 10 ml of Tyrode solution equilibrated with a mixture of 95% O2 and 5% CO2 at 37° C. The tissues were equilibrated for 60 minutes; during this period the Tyrode solution was replaced every 15 minutes and the loading tension was adjusted to 1.0 g. The developed tension of the tissues was measured isometrically with a strain gauge transducer, and recorded on a Recticorder. Both the contractile response of the ileum to submaximal concentration of SRS-A (derived from guinea-pig lung) and tracheal response to 10^-8 M LTD4 were recorded in the absence and then the presence of various concentrations of test compounds. The incubation time of the compounds was 20 minutes.

Assay [2] concerns LTD4-induced contractions of guinea-pig trachea. The experiment in a line: Inhibition of LTD4-induced contractions of isolated guinea-pig trachea. The arrangement: species or system guinea-pig (male Hartley). The note with it: for IC50: Cavia porcellus, 20 min, 10^-8 M LTD4, incubation 20 minutes; for inhibition of contractions induced by LTD4: in words. As for the experimental part: as §1

The test system of assay [3] is LTD4-enhanced vascular permeability. The experiment in a line: Inhibition of LTD4-enhanced vascular permeability in guinea-pigs. It is filed as in vivo, guinea-pig (male Hartley). The following applies: for ED50: Cavia porcellus, 30 minutes before intradermal 5 ng LTD4; for ED50 / inhibition of LTD4-enhanced vascular permeability: oral; for anti-Leukotriene effect by oral route / inhibition of LTD4-enhanced vascular permeability: in words; for inhibition of LTD4-enhanced vascular permeability: 30 minutes before LTD4. The procedure:
Male Hartley guinea-pigs weighing 270 to 305, g starved for 16 hours, were intradermally injected with 5 ng LTD4 in a volume of 0.1 ml into two sites on the shaved back. In addition, 0.1 ml of vehicle was injected intradermally in each animal to see non-specific irritation. One ml of saline containing 1% Evans […] was intravenously injected 2 minutes before LTD4 injection. The leaked dye at the site of LTD4 or vehicle injection was extracted according to the method of Harada et al. (1971) and measured photometrically at 620 nm. The LTD4 -induced skin reaction was expressed as a difference in the amount of dye between LTD4 and vehicle. Test compounds were orally administered 30 minutes before LTD4 injection.

Usually IC50 stands for the concentration that inhibits the measured activity by half. High values mean lower potency, low ones higher potency. Consider `O=C(O)COc1ccc([N+](=O)[O-])cc1NC(=O)c1ccc(OCCCCc2ccccc2)cc1` [Example 41, 4-Nitro-2-[p-(4-phenylbutoxy)benzamido]phenoxyacetic acid], for which, in assay [1], the IC50 is 0.0074 µM and the anti-SRS-A activity entry was “potent anti-SRS-A activity”.
For `CCOC(=O)CCc1ccccc1NC(=O)c1ccc(OCCCCc2ccccc2)cc1` [Example 10, Ethyl 3-[o-[p-(4-phenylbutoxy)benzamido]phenyl]propionate] the same measures were 0.018 µM and “potent anti-SRS-A activity”.
Broadly, the ED50 is the dose at which the effect has come halfway, by size or by number of responders. With `CCCCCCCOc1cccc(C(=O)Nc2ccccc2OCc2nnn[nH]2)c1` [Example 23, 3-Heptyloxy-2'-(5-tetrazolylmethoxy)benzanilide], in assay [1], the IC50 was found to be 0.044 µM and the anti-SRS-A activity result is “potent anti-SRS-A activity”. In assay [2], the midpoint of inhibition, the IC50, lay at 0.4 µM and the “inhibition of contractions induced by LTD4” value (from here on “inhibition … by LTD4”) is “inhibited the contractions induced by LTD4”. Besides, in assay [3], the ED50 worked out at 22.8 mg/kg, the “anti-Leukotriene effect by oral route” value is given as “potent anti-Leukotriene effect” and the “inhibition of LTD4-enhanced vascular permeability” value is given as “dose-dependently inhibited”.
Turning to `O=C(O)CCc1ccccc1NC(=O)c1ccc(OCCCCc2ccccc2)cc1` [Example 18, 3-[o-[p-(4-Phenylbutoxy)benzamido]phenyl]propionic acid], in assay [1], the IC50 is 0.033 µM and the anti-SRS-A activity result is on record as “potent anti-SRS-A activity”.
Regarding `O=C(O)COc1ccc(Cl)cc1NC(=O)c1ccc(OCCCCc2ccccc2)cc1` [Example 40, 4-Chloro-2-[p-(4-phenylbutoxy)benzamido]phenoxyacetic acid], in assay [1], 0.0036 µM corresponded to half-maximal inhibition (IC50) and the anti-SRS-A activity entry is listed as “potent anti-SRS-A activity”. Moreover, in assay [2], the IC50 worked out at 0.057 µM and the “inhibition … by LTD4” value was “inhibited the contractions induced by LTD4”. For the same molecule, in assay [3], the ED50 came to 5.5 mg/kg, the “anti-Leukotriene effect by oral route” value was “potent anti-Leukotriene effect” and the “inhibition of LTD4-enhanced vascular permeability” value is listed as “dose-dependently inhibited”.
In the case of `Cc1ccc(OCC(=O)O)c(NC(=O)c2ccc(OCCCCc3ccccc3)cc2)c1` [Example 39, 4-methyl-2-[p-(4-phenylbutoxy)benzamido]phenoxyacetic acid], in assay [1], the IC50 was 0.0073 µM and the anti-SRS-A activity entry is “potent anti-SRS-A activity”. In assay [2], the IC50 was determined as 0.25 µM and the “inhibition … by LTD4” value was “inhibited the contractions induced by LTD4”. In assay [3], the ED50 came out at 36.1 mg/kg, the “anti-Leukotriene effect by oral route” value is given as “potent anti-Leukotriene effect” and the “inhibition of LTD4-enhanced vascular permeability” value is “dose-dependently inhibited”.
With `O=C(O)COc1ccccc1NC(=O)c1ccc(OCCCCc2ccccc2)cc1` [Example 42, o-[p-(4-Phenylbutoxy)benzamido]phenoxyacetic acid], in assay [1], the IC50 is 0.081 µM and the anti-SRS-A activity result is given as “potent anti-SRS-A activity”.
